According to US11034658B2, “Pyridinyl pyrazoles as modulators of RORγT” (Janssen Pharmaceutica NV, priority 2018, dated 2021):
Marks after values point to notes of the source that are not given here.

Tests used:
[1] = molecular target: human RORγt ligand binding domain (RORγt LBD) (Homo sapiens (Human), UniProt P51449); assay: RORγt ThermoFluor assay
From the text: ThermoFluor® is a fluorescence based assay that estimates ligand binding affinities by measuring the effect of a ligand on protein thermal stability (Pantoliano, M. W., Petrella, E. C., Kwasnoski, J. D., Lobanov, V. S., Myslik, J., Graf, E., Carver, T., Asel, E., Springer, B. A., Lane, P., and Salemme, F. R. (2001) High-density miniaturized thermal shift assays as a general strategy for drug discovery. J Biomol Screen 6, 429-40, and Matulis, D., Kranz, J. K., Salemme, F. R., and Todd, M. J. (2005) Thermodynamic stability of carbonic anhydrase: measurements of binding affinity and stoichiometry using ThermoFluor. Biochemistry 44, 5258-66). This approach is applicable to a wide variety of systems, and rigorous in theoretical interpretation through quantitation of equilibrium binding constants (KD).
The shift in the melting point described as a ΔTm is proportional to the concentration and affinity of the ligand. The compound potency may be compared as a rank order of either values at a single compound concentration or in terms of KD values, estimated from concentration response curves.
RORγt ThermoFluor® Assay Construct
For the RORγt construct used in the ThermoFluor® assay, numbering for the nucleotide sequences was based on the reference sequence for human RORγt, transcript variant 2, NCBI Accession: NM 001001523.1 (SEQ ID NO:1). Nucleotides 850-1635 (SEQ ID NO:2) coding for the wild type human RORγt ligand binding domain (RORγt LBD) were cloned into the pHIS1 vector, a modified pET E. coli expression vector (Accelagen, San Diego), containing an in-frame N-terminal His-tag and a TurboTEV protease cleavage site (ENLYFQG, SEQ ID NO:3) upstream of the cloned insert sequence. The amino acid sequence for the RORγt construct used in the Thermofluor® assay is shown as SEQ ID NO:4.
ThermoFluor® experiments were carried out using instruments owned by Janssen Research and Development, L.L.C. through its acquisition of 3-Dimensional Pharmaceuticals, Inc. 1,8-ANS (Invitrogen) was used as a fluorescent dye. Protein and compound solutions are dispensed into black 384-well polypropylene PCR microplates (Abgene) and overlayed with silicone oil (1 μL, Fluka, type DC 200) to prevent evaporation.
Bar-coded assay plates are robotically loaded onto a thermostatically controlled PCR-type thermal block and then heated at a typical ramp-rate of 1° C./min for all experiments. Fluorescence was measured by continuous illumination with UV light (Hamamatsu LC6) supplied via fiber optic and filtered through a band-pass filter (380-400 nm; >6 OD cutoff). Fluorescence emission of the entire 384-well plate was detected by measuring light intensity using a CCD camera (Sensys, Roper Scientific) filtered to detect 500±25 nm, resulting in simultaneous and independent readings of all 384 wells. Images were collected at each temperature, and the sum of the pixel intensity in a given area of the assay plate was recorded versus temperature. Reference wells contained RORγt without compounds, and the assay conditions were as follows:
Project compounds were arranged in a pre-dosed mother plate (Greiner Bio-one) wherein compounds are serially diluted in 100% DMSO by 1:2 from a high concentration of 10 mM over 12 columns within a series (column 12 is a reference well containing DMSO, no compound). The compounds were robotically dispensed directly into assay plates (1×=46 nL) using a Hummingbird capillary liquid handling instrument (Digilab). Following compound dispense, protein and dye in buffer was added to achieve the final assay volume of 3 μL, followed by 1 μL of silicone oil.
The binding affinity was estimated as described previously (Matulis, D., Kranz, J. K., Salemme, F. R., and Todd, M. J. (2005) Thermodynamic stability of carbonic anhydrase: measurements of binding affinity and stoichiometry using ThermoFluor®. Biochemistry 44, 5258-66) using the following thermodynamic parameters of protein unfolding:
Reference RORγt Tm: 47.8° C.

[2] = molecular target: full-length human RORγt (GAL4-DBD-RORγt fusion) in HEK293T cells (Homo sapiens (Human), UniProt P51449); assay: RORγt (full-length human) reporter assay, conditions A or B; type: cell-based; conditions: for IC50: HEK293T cells, read-out: RORγt (FL) Reporter Assay A or B, IC50; for inhibition at 1 µM: 1 μM compound concentration (footnote ***)
Method: RORγt (Full-Length Human) Reporter Assay:
(§1) HEK293T cells were plated at 35,000 per well in 96-well plate in medium of DMEM with 10% FBS. […] After overnight (16 to 20 hours) incubation, media were removed and cells were lysed with 50 μL Glo Lysis Buffer (Promega) for 10-15 minutes followed by 10 minute incubation with 50 μL Dual Glo reagent (Promega) at room temperature. Firefly luciferase luminescence was measured using a BMG Pherastar plate reader. To each well, 50 μL Stop and Glo reagent was added and incubated for 10 minutes at room temperature. Renilla luminescence was measured using a BMG Pherastar plate reader. To calculate the effect of compounds on RORγt activity, firefly values were normalized against values of DMSO only and values of reference compound at saturating concentration, then further normalized against Renilla signals. IC50s were generated by plotting final Renilla normalized data against compound concentration and percent inhibition was calculated against DMSO control.
as §1, with “at 8750 cells” for “at 35,000”, “in 384-well” for “in 96-well”, “with 20” for “with 50”, “well, 20” for “well, 50”

[3] = HEK-293T, read-out: RORγt (FL) Reporter Assay A or B, % inhibition
[4] = HEK-293T, 3 μM compound concentration (footnote *), read-out: RORγt (FL) Reporter Assay A or B, % inhibition

Sequence of full-length human RORγt (GAL4-DBD-RORγt fusion) in HEK293T cells (P51449 other isoform, or with tags, fused parts or gaps): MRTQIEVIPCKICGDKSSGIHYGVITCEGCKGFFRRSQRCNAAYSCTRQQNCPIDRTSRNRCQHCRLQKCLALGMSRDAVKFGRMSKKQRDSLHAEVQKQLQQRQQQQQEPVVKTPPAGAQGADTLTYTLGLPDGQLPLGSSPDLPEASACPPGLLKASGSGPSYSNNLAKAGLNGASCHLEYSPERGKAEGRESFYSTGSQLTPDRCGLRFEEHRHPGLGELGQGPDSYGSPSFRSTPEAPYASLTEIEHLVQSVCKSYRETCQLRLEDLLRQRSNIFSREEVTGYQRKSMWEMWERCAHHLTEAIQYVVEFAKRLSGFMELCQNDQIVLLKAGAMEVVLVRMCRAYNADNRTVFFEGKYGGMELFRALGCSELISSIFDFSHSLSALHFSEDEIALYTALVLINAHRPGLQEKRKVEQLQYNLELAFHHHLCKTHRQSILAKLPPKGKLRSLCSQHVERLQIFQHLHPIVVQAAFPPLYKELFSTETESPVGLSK
Sequence of human RORγt ligand binding domain (RORγt LBD) (P51449 other isoform, or with tags, fused parts or gaps): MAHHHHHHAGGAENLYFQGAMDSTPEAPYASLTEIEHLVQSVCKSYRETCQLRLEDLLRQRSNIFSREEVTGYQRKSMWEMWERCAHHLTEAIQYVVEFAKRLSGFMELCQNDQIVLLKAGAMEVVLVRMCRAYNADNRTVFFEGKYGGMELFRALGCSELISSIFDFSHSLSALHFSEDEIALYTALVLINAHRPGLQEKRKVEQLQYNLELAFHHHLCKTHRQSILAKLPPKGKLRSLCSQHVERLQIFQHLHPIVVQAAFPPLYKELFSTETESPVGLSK

SMILES	Kd [1] [nM]	IC50 [2] [nM]	inhibition at 1 µM [2, 3] [%]	inhibition at 3 µM [2, 4] [%]	inhibition at 2 µM ([2]; HEK-293T, 2 μM compound concentration, read-out: RORγt (FL) Reporter Assay A or B, % inhibition) [%]	RORγt (FL) Reporter Assay A or B, % inhibition ([2]; 3 μM compound concentration (footnote *))
CCn1nc(C(=O)NC[C@]2(O)CC[C@@H](S(C)(=O)=O)CC2)c(C)c1-c1cnc(C[C@@H](C)C(F)(F)F)cc1OC(F)F (single isomer, unassigned) [Example 20, 5-(4-(Difluoromethoxy)-6-((R*)-3,3,3-trifluoro-2-methylpropyl)pyridin-3-yl)-1-ethyl-N-(((1s,4S)-1-hydroxy-4-(methylsulfonyl)cyclohexyl)methyl)-4-methyl-1H-pyrazole-3-carboxamide]	34	99	–	123	–	–
CCn1nc(C(=O)NC[C@H]2CC[C@H](S(C)(=O)=O)CC2)c(C)c1-c1ccc(CC(C)(C)C(F)(F)F)nc1OC(F)F [Example 49, 5-(2-(Difluoromethoxy)-6-(3,3,3-trifluoro-2,2-dimethylpropyl)pyridin-3-yl)-1-ethyl-4-methyl-N-(((1r,4r)-4-(methylsulfonyl)cyclohexyl)methyl)-1H-pyrazole-3-carboxamide]	0.28	6.4	–	106	–	–
CCn1nc(C(=O)NC[C@@]2(O)CC[C@H](S(C)(=O)=O)C[C@@H]2O)c(Cl)c1-c1cnc(CC(C)(C)C(F)F)cc1OC(F)F (stereo in doubt) [Example 39, 4-Chloro-5-(6-(3,3-difluoro-2,2-dimethylpropyl)-4-(difluoromethoxy)pyridin-3-yl)-N-(((1S*,2S*,4S*)-1,2-dihydroxy-4-(methylsulfonyl)cyclohexyl)methyl)-1-ethyl-1H-pyrazole-3-carboxamide]	40	730	–	72	–	–
CCn1nc(C(=O)NC[C@H]2CC[C@H](S(C)(=O)=O)CC2)c(Cl)c1-c1cnc(O[C@H](C)C(F)(F)F)cc1OC [Example 65]	12	41	–	–	75	–
CCn1nc(C(=O)NC[C@H]2CC[C@H](S(C)(=O)=O)CC2)c(Cl)c1-c1cnc(CC(C)(C)C(F)(F)F)cc1C(C)(F)F [Example 54, 4-Chloro-5-(4-(1,1-difluoroethyl)-6-(3,3,3-trifluoro-2,2-dimethylpropyl)pyridin-3-yl)-1-ethyl-N-(((1r,4r)-4-(methylsulfonyl)cyclohexyl)methyl)-1H-pyrazole-3-carboxamide]	13	240	–	42	–	–
CCn1nc(C(=O)NC[C@H]2CC[C@H](S(=O)(=O)NC(=O)NC)CC2)c(Cl)c1-c1cnc(CC(C)(C)C(F)(F)F)cc1OC(F)F [Example 6, 4-Chloro-5-(4-(difluoromethoxy)-6-(3,3,3-trifluoro-2,2-dimethylpropyl)pyridin-3-yl)-1-ethyl-N-(((1r,4r)-4-(N-(methylcarbamoyl)sulfamoyl)cyclohexyl)methyl)-1H-pyrazole-3-carboxamide]	1.9	270	–	–	–	87* %
CCn1nc(C(=O)NC[C@]2(O)CC[C@@H](S(C)(=O)=O)C[C@H]2O)c(C)c1-c1cnc(CC(C)(C)C(F)F)cc1OC(F)F (stereo in doubt) [Example 44, 5-(6-(3,3-Difluoro-2,2-dimethylpropyl)-4-(difluoromethoxy)pyridin-3-yl)-N-(((1R*,2R*,4R*)-1,2-dihydroxy-4-(methylsulfonyl)cyclohexyl)methyl)-1-ethyl-4-methyl-1H-pyrazole-3-carboxamide]	69	890	–	85	–	–

More lines, in order of falling Kd [1], values ahead:

Kd [1] [nM]	IC50 [2] [nM]	inhibition at 1 µM [2, 3] [%]	inhibition at 3 µM [2, 4] [%]	inhibition at 2 µM ([2]; HEK-293T, 2 μM compound concentration, read-out: RORγt (FL) Reporter Assay A or B, % inhibition) [%]	SMILES	RORγt (FL) Reporter Assay A or B, % inhibition ([2]; 3 μM compound concentration (footnote *))
62	1100	–	66	–	CCn1nc(C(=O)NC[C@]2(O)CC[C@@H](S(C)(=O)=O)CC2)c(Cl)c1-c1cnc(CCCC(F)(F)F)cc1OC(F)F [Example 33, 4-Chloro-5-(4-(difluoromethoxy)-6-(4,4,4-trifluorobutyl)pyridin-3-yl)-1-ethyl-N-(((1s,4s)-1-hydroxy-4-(methylsulfonyl)cyclohexyl)methyl)-1H-pyrazole-3-carboxamide]	–
29	930	–	104	–	CCn1nc(C(=O)NC[C@]2(O)CC[C@@H](S(N)(=O)=O)CC2)c(C)c1-c1cnc(CC(C)(C)C(F)(F)F)cc1OC(F)F [Example 2, 5-(4-(Difluoromethoxy)-6-(3,3,3-trifluoro-2,2-dimethylpropyl)pyridin-3-yl)-1-ethyl-N-(((1s,4s)-1-hydroxy-4-sulfamoylcyclohexyl)methyl)-4-methyl-1H-pyrazole-3-carboxamide]	–
26	160	100	–	–	Cc1c(C(=O)NC[C@H]2CC[C@H](S(C)(=O)=O)CC2)nn(C)c1-c1cnc(CC(C)(C)C(F)(F)F)cc1OC(F)F [Example 31]	–
17	40	–	105	–	CCn1nc(C(=O)NC[C@H]2CC[C@H](S(C)(=O)=O)CC2)c(C)c1-c1cnc(C[C@@H](C)C(F)(F)F)cc1OC(F)F (single isomer, unassigned) [Example 19, 5-(4-(Difluoromethoxy)-6-((R*)-3,3,3-trifluoro-2-methylpropyl)pyridin-3-yl)-1-ethyl-4-methyl-N-(((1r,4R)-4-(methylsulfonyl)cyclohexyl)methyl)-1H-pyrazole-3-carboxamide]	–
15	340	–	94	–	CCn1nc(C(=O)NC[C@H]2CC[C@H](S(C)(=O)=O)CC2)c(Cl)c1-c1cnc(CC(C)(C)C(F)(F)F)cc1C(C)C [Example 25]	–
1.2	20	120	–	–	CCn1nc(C(=O)NC[C@H]2CC[C@H](S(C)(=O)=O)CC2)c(Cl)c1-c1cnc(CC(C(F)(F)F)C(F)(F)F)cc1OC(F)F [Example 21, 4-Chloro-5-(4-(difluoromethoxy)-6-(3,3,3-trifluoro-2-(trifluoromethyl)propyl)pyridin-3-yl)-1-ethyl-N-(((1r,4r)-4-(methylsulfonyl)cyclohexyl)methyl)-1H-pyrazole-3-carboxamide]	–
